Target: T1, ITK (Jurkat or Molt4 cells) (Homo sapiens, UniProt Q08881)
T1 construct: either human Jurkat (Clone E6-1 ATCC TIB-152) or Motl4 (ATCC CRL-1552), were plated; endogenous in cells; host or cells: Jurkat Clone E6-1 (ATCC TIB-152) or Molt4 (ATCC CRL-1552)
T1 sequence (Q08881 1-620): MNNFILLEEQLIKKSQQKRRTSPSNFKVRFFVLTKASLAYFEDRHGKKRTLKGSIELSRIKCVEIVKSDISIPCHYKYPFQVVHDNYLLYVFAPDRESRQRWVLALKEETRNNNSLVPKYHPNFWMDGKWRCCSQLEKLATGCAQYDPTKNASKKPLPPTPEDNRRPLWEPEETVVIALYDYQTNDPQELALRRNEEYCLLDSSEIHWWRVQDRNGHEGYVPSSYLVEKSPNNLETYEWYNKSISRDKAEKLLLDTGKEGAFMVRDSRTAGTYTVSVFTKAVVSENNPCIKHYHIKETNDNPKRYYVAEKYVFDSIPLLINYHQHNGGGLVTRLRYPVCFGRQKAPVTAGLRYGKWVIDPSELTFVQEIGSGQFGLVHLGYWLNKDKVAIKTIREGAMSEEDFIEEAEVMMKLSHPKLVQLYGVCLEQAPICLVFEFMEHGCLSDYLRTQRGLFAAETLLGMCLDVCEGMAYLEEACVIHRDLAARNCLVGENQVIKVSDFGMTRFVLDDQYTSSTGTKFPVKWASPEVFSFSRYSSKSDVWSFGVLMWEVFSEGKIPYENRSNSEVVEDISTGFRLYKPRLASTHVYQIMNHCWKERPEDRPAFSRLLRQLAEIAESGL
Test: ITK Degradation MSD (Meso Scale Discovery) Assay
Type: cell-based
Details: 4 or 6 hrs incubation; for DC50: best fit IC50 used as DC50
In short: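 Jurkat or Molt4 cells at 1×10^6 cells/mL in RPMI/10% FBS treated 4 or 6 hr at 32° C with 7-point, 5-fold compound dilutions (0.5% DMSO). Lysate ITK quantified by MSD sandwich ECL immunoassay; % ITK remaining fitted by four-parameter curve, IC50 taken as DC50, plus Dmax.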

Row | SMILES | DC50 | Dmax
1 | CN[C@@H](C)C(=O)N[C@H](C(=O)N1CCC[C@H]1c1nc(C(=O)c2cccc(OCCCN3CC([C@@H](c4ccccc4)n4cc(NC(=O)c5n[nH]c6c5C[C@@H]5C(F)(F)[C@]5(C)C6)cn4)C3)c2)cs1)C1CCCCC1 [Compound 8, (4aS,5aR)—N-(1-((S)-(1-(3-(3-(2-((S)-1-((S)-2-cyclohexyl-2-((S)-2-(methylamino)propanamido)acetyl)pyrrolidin-2-yl)thiazole-4-carbonyl)phenoxy)propyl)azetidin-3-yl)(phenyl)methyl)-1H-pyrazol-4-yl)-5,5-difluoro-5a-methyl-1,4,4a,5,5a,6-hexahydrocyclopropa[f]indazole-3-carboxamide] | 49 nM | 
2 | Cc1ncsc1-c1ccc(CNC(=O)[C@@H]2C[C@@H](O)CN2C(=O)[C@@H](NC(=O)C2(F)CC2)C(C)(C)C)c(OCCCC(=O)N2CC([C@@H](c3ccccc3)n3cc(NC(=O)c4n[nH]c5c4C[C@@H]4C(F)(F)[C@]4(C)C5)cn3)C2)c1 [Compound 33, (4aS,5aR)-5,5-difluoro-N-(1-((S)-(1-(4-(2-(((2S,4R)-1-((S)-2-(1-fluorocyclopropane-1-carboxamido)-3,3-dimethylbutanoyl)-4-hydroxypyrrolidine-2-carboxamido)methyl)-5-(4-methylthiazol-5-yl)phenoxy)butanoyl)azetidin-3-yl)(phenyl)methyl)-1H-pyrazol-4-yl)-5a-methyl-1,4,4a,5,5a,6-hexahydrocyclopropa[f]indazole-3-carboxamide] | 27.9 nM | 94.5%
3 | CN[C@@H](C)C(=O)N[C@H](C(=O)N1CCCC1c1nc(C(=O)c2cccc(OCCOCCOCCOCCOCCOCCC(=O)N3CC([C@@H](c4ccccc4)n4cc(NC(=O)c5n[nH]c6c5C[C@@H]5C(F)(F)[C@]5(C)C6)cn4)C3)c2)cs1)C1CCCCC1 (stereo in doubt) [Compound 4, (4aS,5aR)—N-(1-((S)-(1-(1-(3-(2-((R)-1-((S)-2-cyclohexyl-2-((S)-2-(methylamino)propanamido)acetyl)pyrrolidin-2-yl)thiazole-4-carbonyl)phenoxy)-3,6,9,12,15-pentaoxaoctadecan-18-oyl)azetidin-3-yl)(phenyl)methyl)-1H-pyrazol-4-yl)-5,5-difluoro-5a-methyl-1,4,4a,5,5a,6-hexahydrocyclopropa[f]indazole-3-carboxamide] | 13.6 nM | 

— US20250002489A1, “BIFUNCTIONAL COMPOUNDS FOR DEGRADING ITK VIA UBIQUITIN PROTEOSOME PATHWAY” (NURIX THERAPEUTICS, INC., priority 2021, published 2025)
